Data from patent US20060035946A1, “Amyloid-binding, metal-chelating agents” (The General Hospital Corporation, priority 2003, published 2006).
One block for each compound: values may come before it.

Legend:
[1] = test system: cortical amyloid accumulation; details: Tg2576 transgenic mouse model for Alzheimer's disease; R. A. Cherny et al., Neuron 2001; cited from earlier work
Aβ1-40 [2] = biological target: T1, Aβ1-40 (Homo sapiens, UniProt P05067); assay: Inhibition of Zn2+-induced aggregation of Aβ measured by turbidity; type: biochemical; details: Aβ1-40 10 μM, Zn2+ 25 μM, compound 25 μM, pH 7.4; FIG. 8
T1 construct: Human Aβ peptides (Aβ1-40 and Aβ1-42) were synthesized; purchased W. M. Keck Foundation Biotechnology Resource Laboratory (Yale); Glabe Laboratory (UC Irvine); Multhaup Laboratory (Heidelberg); U.S. Peptide, Inc; Aldrich-Sigma; host or cells: chemical synthesis (solid-phase Fmoc)
T1 sequence (P05067 672-711 limits assumed): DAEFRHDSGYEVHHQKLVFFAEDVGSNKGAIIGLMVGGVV
Source text: (§1) Human Aβ peptides (Aβ1-40 and Aβ1-42) were synthesized using solid-phase Fmoc chemistry at the W. M. Keck Foundation Biotechnology Resource Laboratory (Yale University, New Haven, Conn.); Glabe Laboratory (University of California, Irvine, Calif.); or Multhaup Laboratory (University of Heidelberg, Germany); or purchased from U.S. Peptide, Inc. (Rancho Cucamonga, Calif.); or Aldrich-Sigma (St. Louis, Mo.). The syntheses were confirmed by purification by reverse-phase HPLC, amino acid sequencing, and mass spectrometry. Synthetic Aβ peptides were dissolved in trifluoroethanol (30% in Milli-Q water (Millipore Corporation, Milford, Mass.)) or 20 mM HEPES (pH 8.5) at a concentration of […], centrifuged for 20 minutes at 10,000×g and the supernatant (stock Aβ) used for subsequent assays on the day of the experiment.
Turbidity measurements were performed as previously described (X. Huang et al., J. Biol. Chem. 1997, 272: 26464-26470). […] Subsequently, 20 μL aliquots of 10 mM of the bifunctional molecule to be tested or 10 mM Zn^2+ were added to the mixture alternatively, and following a 2 min. delay, a further four readings were taken at 1 min. intervals. After the final addition of the bifunctional molecule and turbidity reading, the mixtures were incubated for an additional 30 minutes before taking the last readings. […]

Aβ1-40 [3] = biological target: T1, Aβ1-40; assay: MRI signals from spherical phantoms in the presence of Aβ1-40; type: binding; details: PBS pH 7.4, FIG. 11
Source text: as §1
(§2) Different solution mixtures (containing a contrast imaging agent, Gd-XH1 or Gd-DTPA, in the presence or absence of Aβ1-40, Aβ1-42 or HSA in PBS, pH 7.4) were injected into 4.5-mL hollow spheres (made of polypropylene) and subjected to a 3-T magnetic scanner (Simens). Spin-Echo scanning mode was used and T1 signals were measured for each solution using 12 TR values (TE=5 ms), with R1=1/T1, and R1(obs)=R1(O)+R1 (Gd-XH1-Aβ1-40 or -Aβ1-42).

HSA = HSA (Homo sapiens, UniProt P02768); assay: MRI signals from spherical phantoms in the presence of HSA; type: binding; details: PBS pH 7.4, FIG. 11
HSA, sequence (P02768 25-609): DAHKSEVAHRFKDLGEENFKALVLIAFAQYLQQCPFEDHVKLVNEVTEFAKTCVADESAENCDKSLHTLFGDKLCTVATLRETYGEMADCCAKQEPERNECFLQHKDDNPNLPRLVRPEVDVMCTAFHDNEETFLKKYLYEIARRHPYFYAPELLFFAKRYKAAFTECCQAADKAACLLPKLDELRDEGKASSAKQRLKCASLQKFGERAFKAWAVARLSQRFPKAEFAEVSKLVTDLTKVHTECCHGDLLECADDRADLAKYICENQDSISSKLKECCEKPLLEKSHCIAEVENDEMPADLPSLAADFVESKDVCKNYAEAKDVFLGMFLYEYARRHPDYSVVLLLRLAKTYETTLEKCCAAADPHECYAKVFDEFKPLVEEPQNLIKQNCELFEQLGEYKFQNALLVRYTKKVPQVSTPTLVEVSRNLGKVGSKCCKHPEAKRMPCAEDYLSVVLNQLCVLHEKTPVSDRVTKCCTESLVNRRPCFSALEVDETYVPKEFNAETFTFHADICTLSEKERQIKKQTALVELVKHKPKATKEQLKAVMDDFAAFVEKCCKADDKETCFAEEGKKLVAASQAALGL
Procedure: as §2

β-tubulin = assay: Control protein expression by SDS-PAGE in SH-SY5Y cells; type: cell-based, human; details: same conditions as APP, FIG. 10A
Procedure: (§3) In SH-SY5Y human neuroblastoma cells, the capacity of XH1 to suppress APP synthesis was measured by SDS-PAGE. Control proteins (β-tubulin and/or two amyloid-precursor-like proteins, APLP1 and APLP2) were used to ensure target suppression specificity of the inventive bifunctional molecule.
(§4) SDS-PAGE. SH-SY5Y human neutoblastoma cells were harvested and washed with cold PBS three times and then lysed with M-PER™ mammalian protein extraction reagent (Pierce) mixed with protease inhibitor cocktails (Roche). The cell lysate was […] for 15 minutes at 13,000 rpm in a cold room, and the supernatants were BCA assayed for total protein concentrations. Protein blotting was performed on pre-casted NuPAGE™ 4-12% Bis-Tris Gel (Invitrogen) with equal protein loading (15 μg/well). It was run at 200 V for 45 minutes and transferred at 75 mA/gel for 95 minutes. The blots were probed by primary and secondary antibodies according to manufacturer's instructions and finally washed for 2-3 hours at 15 min. intervals. The blots were then developed using a chemiluminescent kit (Pierce).

APP = assay: Determination of APP protein synthesis by SDS-PAGE in SH-SY5Y cells; type: cell-based, human; details: increasing XH1 concentration, 48 hours, FIG. 10A
Procedure: as §3, §4

[4] = test system: E17 rat cortical primary neurons; assay: Neurotoxicity in primary neuronal culture (LDH release and MTT assays); type: cell-based; details: XH1 0, 1 or 10 μM, 48 hours after treatment; FIG. 9A
Source text: A primary neuronal culture was used to test the neurotoxicity of the parent bifunctional molecule, XH1. E17 rat cortical primary neurons were obtained from pathogen-free female Sprague-Dawley rats (purchased from Taconic Farms, Mass.) after 17 days of gestation, as described by G. J. Brewer and C. W. Cotman (in Brain Res. 1989, 494: 65-74). The protocol used allowed long-term culture of neurons at low density under precisely defined culture conditions. This protocol provided up to 90% neuronal culture. It was desirable that a small population of glial cells be co-cultured with the rat cortical primary neurons as these cells support neuronal survival. Cytosine arabinoside (1 μM) was used to control the growth of glial cells in the culture preparation. The neuronal population was checked regularly using neuron-specific enolase (and/or astroglia-specific S100β) immunohistochemistry.
E17 rat cortical primary neurons were grown under 95% […], 5% CO2, 85% humidity conditions, at 37° C. for 4 days in serum-free Neurobasal™ medium with B-27 supplement (Life Technologies, Inc.), 20 μM L-glutamate, 100 units/mL penicillin, […] streptomycin, and 2 mM L-glutamine. On the 5th day (treatment day), the medium was replaced with serum-free Neurobasal™ medium plus L-glutamine without B-27 supplement. […]

[5] = test system: human SH-SY5Y neuroblastoma cells; assay: Neurotoxicity in neuroblastoma cells (LDH release assay); type: cell-based; details: XH1 0, 1, 5 or 10 μM, 48 hours after treatment; FIG. 9B
Procedure: The neurotoxicity of XH1 was also tested on human SH-SY5Y neuroblastoma cells. The SH-SY5Y cell line is commonly used to study neuritogenesis, differentiation, and tumorigenesis (D. Vu et al., Brain Res. Mol. Brain Res. 2003, 115: 93-103). SH-SY5Y cells were obtained from American Type Culture Collection and grown in Dulbecco's modified Eagle's medium supplemented with 10% fetal bovine serum (Gibco-BRL) and antibiotics.
Human SH-SY5Y neuroblastoma cells were incubated in the presence of XH1 (0, 1, 5 or 10 μM) (95% […], 5% CO2, 85% humidity, 37° C.) and cell viability was assessed 48 hours after treatment using the LDH release assay as described above.

APLP1 = assay: Control protein synthesis by SDS-PAGE in SH-SY5Y cells; type: cell-based, human; details: XH1 up to 10 μM, FIG. 10B
Procedure: as §3, §4

APLP2 = assay: as above; type: cell-based, human; details: XH1 up to 10 μM, FIG. 10B
Procedure: as §3, §4

Structure (SMILES): Oc1c(I)cc(Cl)c2cccnc12 [Clioquinol]
cortical amyloid accumulation [1]: marked inhibition

Zn2+-induced aggregation of Aβ1-40 in solution (turbidity at 400 nm) (Aβ1-40 [2]): significantly decrease
Structure (SMILES): O=C(O)CN(CCN(CC(=O)O)CC(=O)O)CCN(CC(=O)O)CC(=O)O [DTPA, diethylene triaminepentaacetic acid, reference compound]

effect on MRI signal of combination with Aβ (Aβ1-40 [3]): No effects
effect on MRI signal of combination with HSA (HSA): No effects
Structure (SMILES): O=C([O-])CN(CCN(CC(=O)[O-])CC(=O)O)CCN(CC(=O)[O-])CC(=O)O.[Gd+3] [Gd-DTPA]

Structure (SMILES): O=C(O)CN(CCN(CC(=O)O)CC(=O)Nc1ccc(-c2nc3ccccc3s2)cc1)CCN(CC(=O)O)CC(=O)Nc1ccc(-c2nc3ccccc3s2)cc1 [XH1]
β-tubulin expression (β-tubulin): no effects
APP synthesis (APP): decrease in APP synthesis
cell death (LDH release and MTT assays) [4]: does not induce any significant cell death
cell death (LDH release assay) [5]: does not cause any significant cell death
APLP1 synthesis (APLP1): did not affect
APLP2 synthesis (APLP2): did not affect
Zn2+-induced aggregation of Aβ1-40 in solution (turbidity at 400 nm) (Aβ1-40 [2]): significantly decrease
